# Like-named read-outs stand apart in the source and are kept apart here. Positions of bridges follow the written chain, without caps; N, C: chain ends. Non-standard residues stand in square brackets, D forms with d. Residues, ends and D or L forms follow the SMILES beside them. *: point of attachment. X1 = CC[C@H](C)CCCCC(=O)*; Dab = NCC[C@H](N)C(=O)O
# What was measured:
# P. aeruginosa NH57388A = test: MIC, broth microdilution; type: cell-based, Pseudomonas aeruginosa
# Method: (§1) The minimum inhibitory concentration (MIC) of colistin (as sulphate salt) and polymyxin B and their conjugates was determined using the broth microdilution method in MH broth in accordance with standard guidelines. Test organisms were suspended in MH broth (100 µL, 5 × 10^5 colony forming units (CFU)/mL) and incubated in 96-well microtitre plates in serial two-fold dilutions of the test compounds. […] Results were expressed as mode (n = 3). […] Selective activities of the polymyxins and OligoG–polymyxin conjugates were calculated as follows:Selectivity index (SI) = IC50 (μg/mL)/MIC (μg/mL).
# (§2) To study the antimicrobial efficacy of test compounds under more clinically relevant conditions, the MIC protocol was performed using AS medium instead of MH broth. The plates were incubated with resazurin as described above.
# P. aeruginosa R22 = type: cell-based, Pseudomonas aeruginosa; details: for MIC: resazurin read-out
# Method: as §1
# (§3) To account for turbidity caused by mucin, resazurin dye solution (30 µL, 0.01% w/v in dH2O) was added to each well and incubated for a further 3 h at 37 °C. Colour changes were observed and recorded.
# K. pneumoniae IR25 = type: cell-based, Klebsiella pneumoniae; details: for MIC: resazurin read-out
# Method: as §1, §3
# E. coli 5702 = test: MIC, broth microdilution; type: cell-based, Escherichia coli
# Method: as §1, §2
# E. coli NCTC 10418 = type: cell-based, Escherichia coli; details: SI = IC50 (µg/mL, HK-2)/MIC (µg/mL)
# Method: as §1
# A. baumannii MDR ACB = type: cell-based, Acinetobacter baumannii; details: for MIC: resazurin read-out
# Method: as §1, §3
# [1] = cited from earlier work
# Method: In a clinical setting, binding of colistin to sputum biomolecules (e.g., mucin) in the airways could negatively impact antibiotic effectiveness and availability. […] A four-fold increase in the MIC of colistin was also reported when the assay was conducted in AS medium instead of MH broth, thought to be caused by bacterial growth disruption, structural modifications of lipopolysaccharides or direct colistin–mucin interactions. Alt ...
# K. pneumoniae KP05 506 = type: cell-based, Klebsiella pneumoniae
# Method: as §1
# (§4) In addition, alginate oligomer–colistin conjugates (3 mg/mL) were incubated in PBS at pH 7 containing bacterial alginate lyase (1 and 10 U/mL) at 37 °C for 24 h, before preparing microtitre plates as described above.
# as §2
# E. coli PN21 = test: MIC, broth microdilution; type: cell-based, Escherichia coli; details: SI = IC50 (µg/mL, HK-2)/MIC (µg/mL)
# Method: as §1
# E. coli AIM-1 = test: MIC, broth microdilution; type: cell-based, Escherichia coli; details: broth microdilution, MH broth, 5 × 10^5 CFU/mL, 16–20 h, mode (n = 3)
# Method: as §1, §4
# P. aeruginosa MDR 301 = type: cell-based, Pseudomonas aeruginosa
# Method: as §1, §4, §2
# A. baumannii 7789 = type: cell-based, Acinetobacter baumannii
# Method: as §1, §4, §2
# E. coli IR57 = type: cell-based, Escherichia coli
# Method: as §1, §3, §2
# P. aeruginosa NCTC 10662 = type: cell-based, Pseudomonas aeruginosa; details: SI = IC50 (µg/mL, HK-2)/MIC (µg/mL)
# Method: as §1
# MTT cytotoxicity assay = type: cell-based; details: human, HK-2 cells, 72 h incubation, 0–1 mg/mL polymyxin base, ±SEM (n = 18), read-out: Half maximal inhibitory concentration (IC50), cytotoxicity
# Method: A 3-(4,5-dimethylthiazol-2-yl)-2,5-diphenyltetrazolium bromide (MTT) assay was used to measure cell viability and proliferation of HK-2 cells. Cells were seeded into sterile 96-well microtitre plates at 1 × 10^5 cells/mL (100 µL/well) and allowed to adhere for 24 h at 37 °C. The following day, the old medium was replaced with test compounds (0–1 mg/mL polymyxin base) dissolved in filter-sterilised K-SFM. After 67 h incubation at 37 °C, filter-sterilised MTT solution (20 µL of a 5 mg/mL solution in PBS) was added to each well and incubated for a further 5 h at 37 °C. Finally, the medium was carefully removed, and the formazan crystals were solubilised in DMSO (100 µL) for 30 min. Absorbance was measured at 550 nm using a Fluostar Omega microplate reader. […] Data are expressed as mean ± SEM (n = 18).
# [2] = tested on: range of Gram-negative bacterial pathogens; test: MIC and selectivity index across the panel of isolates; type: cell-based; details: mean SI over the isolates of Table S4
# Method: as §1
# [3] = AS (artificial sputum) medium, resazurin read-out
# [4] = MH broth (Table S7 comparison with AS medium)
# [5] = MH broth + porcine stomach (type II) mucin 0.2% w/v
# [6] = MH broth + porcine stomach (type II) mucin 2% w/v
structure (smiles),measurement,setting,value
"CC[C@H](C)CCCCC(=O)N[C@@H](CCN)C(=O)N[C@H](C(=O)N[C@@H](CCN)C(=O)N[C@H]1CCNC(=O)[C@H]([C@@H](C)O)NC(=O)[C@H](CCN)NC(=O)[C@H](CCN)NC(=O)[C@H](CC(C)C)NC(=O)[C@@H](Cc2ccccc2)NC(=O)[C@H](CCN)NC1=O)[C@@H](C)O [Polymyxin B, polymyxin B] (X1-[Dab]T[Dab][Dab][Dab][dF]L[Dab][Dab]T; lactam 4-C (inferred); N-terminus assumed)",MIC,P. aeruginosa NH57388A; [3],1 μg/mL Drug Base
same,MIC,P. aeruginosa NH57388A; [4],0.25 μg/mL Drug Base
same,Selectivity index (SI) value,"P. aeruginosa NH57388A; SI = IC50 (µg/mL, HK-2)/MIC (µg/mL), P. aeruginosa NH57388A",44
same,MIC,P. aeruginosa R22; [5],4 μg/mL Drug Base
same,MIC,P. aeruginosa R22; [6],64 μg/mL Drug Base
same,MIC,"P. aeruginosa R22; MH broth, mucin 0%",0.25 μg/mL Drug Base
same,Selectivity index (SI) value,"P. aeruginosa R22; SI = IC50 (µg/mL, HK-2)/MIC (µg/mL), P. aeruginosa R22",44
same,MIC,K. pneumoniae IR25; [5],4 μg/mL Drug Base
same,MIC,K. pneumoniae IR25; [6],64 μg/mL Drug Base
same,MIC,"K. pneumoniae IR25; MH broth, mucin 0%",0.125 μg/mL Drug Base
same,Selectivity index (SI) value,"K. pneumoniae IR25; SI = IC50 (µg/mL, HK-2)/MIC (µg/mL), K. pneumoniae IR25",88
same,MIC,E. coli 5702; [3],0.25 μg/mL Drug Base
same,MIC,E. coli 5702; [4],0.063 μg/mL Drug Base
same,Selectivity index (SI) value,E. coli NCTC 10418,1
same,MIC,A. baumannii MDR ACB; [5],1 μg/mL Drug Base
same,MIC,A. baumannii MDR ACB; [6],16 μg/mL Drug Base
same,MIC,"A. baumannii MDR ACB; MH broth, mucin 0%",0.125 μg/mL Drug Base
same,Selectivity index (SI) value,"A. baumannii MDR ACB; SI = IC50 (µg/mL, HK-2)/MIC (µg/mL), A. baumannii MDR ACB",88
same,increase in MIC values when mucin was added to the bacterial culture medium,[1],> 100 fold
same,MIC,K. pneumoniae KP05 506; [3],1 μg/mL Drug Base
same,MIC,K. pneumoniae KP05 506; [4],0.125 μg/mL Drug Base
same,Selectivity index (SI) value,"K. pneumoniae KP05 506; SI = IC50 (µg/mL, HK-2)/MIC (µg/mL), K. pneumoniae KP05 506",88
same,Selectivity index (SI) value,E. coli PN21,3
same,MIC,E. coli AIM-1,<0.004 μg/mL Drug Base
same,MIC,P. aeruginosa MDR 301; [3],4 μg/mL Drug Base
same,MIC,P. aeruginosa MDR 301; [4],0.5 μg/mL Drug Base
same,Selectivity index (SI) value,"P. aeruginosa MDR 301; SI = IC50 (µg/mL, HK-2)/MIC (µg/mL), P. aeruginosa MDR 301",22
same,MIC,A. baumannii 7789; [3],0.5 μg/mL Drug Base
same,MIC,A. baumannii 7789; [4],0.125 μg/mL Drug Base
same,Selectivity index (SI) value,"A. baumannii 7789; SI = IC50 (µg/mL, HK-2)/MIC (µg/mL), A. baumannii 7789",88
same,MIC,E. coli IR57; [3],0.125 μg/mL Drug Base
same,MIC,E. coli IR57; [4],0.5 μg/mL Drug Base
same,MIC,"E. coli IR57; MH broth + porcine stomach (type II) mucin 0.2% w/v, resazurin read-out",1 μg/mL Drug Base
same,MIC,"E. coli IR57; MH broth + porcine stomach (type II) mucin 2% w/v, resazurin read-out",4 μg/mL Drug Base
same,MIC,"E. coli IR57; MH broth, mucin 0%, resazurin read-out",0.5 μg/mL Drug Base
same,Selectivity index (SI) value,P. aeruginosa NCTC 10662,175
same,IC50 at 72 h,MTT cytotoxicity assay,11 mg/L
same,"Selectivity index (SI) value, Mean",[2],66

# From paper PMC7696216, “Bi-Functional Alginate Oligosaccharide–Polymyxin Conjugates for Improved Treatment of Multidrug-Resistant Gram-Negative Bacterial Infections” (Pharmaceutics, 2020)
